Entries after “also recorded” stand apart in the source; their conditions may differ.
Assays:
Type in all cases: in vivo
sensory panel [1] = assay: Sensory tests (organoleptic evaluation) of compounds added to inducing compositions; conditions: for kokumi sensation / flavour enhancing sensation (in words): added to various inducing compositions or foods; for kokumi sensation (in words): after undergoing an Amadori reaction
From the text: Sensory tests subjecting the flavour enhancing compounds to organoleptic evaluation indicate that the isolated flavouring compounds are substantially tasteless in the form of an aqueous solution, but are useful for imparting the enhanced effects when added even in small amounts to certain inducing compositions or food products containing a glutamate and/or nucleic acid as further described below. […] The thresholds given herein are meant to reflect minimum amounts for use in chicken broth as a matrix; however, one skilled in the art, armed with this disclosure, will recognize that this amount can be adjusted, either higher or lower, dependent upon the matrix used and the desired intensity of the kokumi effect. In general, a certain amount of salt is also necessary to achieve the kokumi effect; typically, about 12 mmol/L, which is found naturally in nearly all food products. The compounds can be applied to different kinds of foods including without limitation snacks, soups, cereals, sauces, fish, and fish paste. Unless otherwise indicated, all sensory tests for the samples are determined using triangle tests ([…] and Belitz, Z. Lebensm. Unters. Forsch., 1975, 159, 65-72) in three different sessions. The sensory panel is trained to evaluate aqueous solutions (2 mL each) of the following reference taste compounds dissolved in bottled water with a pH of 6.0: sucrose (25 mmol/L) for sweet taste; lactic acid (20 mmol/L) for sour taste; NaCl (30 mmol/L) for salty taste; caffeine (1 mmol/L) for bitter taste; and MSG (3 mmol/L) for umami taste, tannic acid (0.05%) for puckering astringency, and quercetin-O-β-D-glucopyranoside (0.01 mmol/L) for a velvety astringent, mouth-drying oral sensation. For the training of viscosity, a gelatin solution (0.5% in water) was used. […] Sensory analyses were performed in a sensory panel room at 19-22° C. in three different sessions using nose clamps. For recording the taste profiles, samples are prepared as indicated in the examples below. Flavor profiles of samples are determined in a triangle test in three different sessions. Panelists refrain from eating or drinking for at least 1 hour prior to the session. At the start of the session and before each trial, the subjects rinsed with water and expectorated. The participants receive a set of two blanks and one taste sample. Liquids are swirled around in the mouth briefly and expectorated. […] Each sample with additive is compared to two reference samples without additives.

sensory panel [2] = assay: Sensory (triangle) tests of the compounds in water; conditions: for Sensory descriptors: pH 6.5; for Intensity (0-5): pH 6.5, aroma and taste intensity, scale 0-5; for kokumi sensation (in words): without inducing or glutamate-containing composition
Protocol: (§1) Unless otherwise indicated, all sensory tests for the samples are determined using triangle tests (Wieser and Belitz, Z. Lebensm. Unters. Forsch., 1975, 159, 65-72) in three different sessions. The sensory panel is trained to evaluate aqueous solutions (2 mL each) of the following reference taste compounds dissolved in bottled water with a pH of 6.0: sucrose (25 mmol/L) for sweet taste; lactic acid (20 mmol/L) for sour taste; NaCl (30 mmol/L) for salty taste; caffeine (1 mmol/L) for bitter taste; and MSG (3 mmol/L) for umami taste, tannic acid (0.05%) for puckering astringency, and quercetin-O-β-D-glucopyranoside (0.01 mmol/L) for a velvety astringent, mouth-drying oral sensation. For the training of viscosity, a gelatin solution (0.5% in water) was used. […] Sensory analyses were performed in a sensory panel room at 19-22° C. in three different sessions using nose clamps.
(§2) For recording the taste profiles, samples are prepared as indicated in the examples below. Flavor profiles of samples are determined in a triangle test in three different sessions. Panelists refrain from eating or drinking for at least 1 hour prior to the session. At the start of the session and before each trial, the subjects rinsed with water and expectorated. The participants receive a set of two blanks and one taste sample. Liquids are swirled around in the mouth briefly and expectorated. […] Each sample with additive is compared to two reference samples without additives. Kokumi intensity is rated according to a scale from 0 to 5 (with 5 being the most intensive). Punch refers to an initial kokumi sensation experienced in the mouth within 0-3 seconds from the time when a food or liquid is put in the mouth, while long-lasting refers to kokumi felt after 10-60 seconds therefrom.
Sensory (triangle) tests are performed by dissolving the listed compounds in water (Evian®). Additives are added as specified in table below. The pH-value of all samples is adjusted to 6.5 using formic acid (0.1 mol/L) or sodium hydroxide (0.1 mol/L). For each sample, aroma and taste intensity is rated and panelists are asked to describe sensory characteristics.

sensory panel [3] = assay: Sensory (triangle) tests: kokumi intensity in chicken broth; conditions: for Kokumi intensity (0-5): pH 6.5, scale 0-5 (blank = 2)
Protocol: as §1, §2
Sensory (triangle) tests are performed by dilution of 3 grams of chicken broth concentrate (Gourmet Bouillon Huhn; Maggi, Singen, Germany) with 100 mL water (Evian®). Additives are added as specified in table below. The pH-value of all samples is adjusted to 6.5 using formic acid (0.1 mol/L) or sodium hydroxide (0.1 mol/L). […] For each sample, kokumi intensity is rated and panelists were asked to describe sensory characteristics.

CC=CSCC(NC(=O)CCC(N)C(=O)O)C(=O)NC(C[S+]([O-])C=CC)C(=O)O (racemic) [γ-L-glu-(E)-S-(propen-1-yl)-L-cys-(E)-S-(propen-1-yl)-L-cys-(+/−)-SO]
kokumi sensation / flavour enhancing sensation (in words) (sensory panel [1]; listed as formula (I)): strong kokumi sensation; also recorded: surprisingly highly potent kokumi effect; also recorded: strong flavour enhancing sensation | Sensory descriptors (sensory panel [2]; additive 5 mmol/L): flavourless | Intensity (0-5) (sensory panel [2]; additive 5 mmol/L): 0 | kokumi sensation (in words) (sensory panel [2]): no kokumi sensation | kokumi effect (in words) (sensory panel [3]; Table 10): surprisingly potent kokumi effect | Kokumi intensity (0-5) (sensory panel [3]; additive 5 mmol/L): 4.5

C=CCSC[C@H](N)C(=O)O [S-allyl-L-cysteine]
kokumi sensation (in words) (sensory panel [1]): good kokumi sensation | Intensity (0-5) (sensory panel [2]; additive 10 mmol/L): 1 | Kokumi intensity (0-5) (sensory panel [3]; additive 10 mmol/L): 3.3

C/C=C/SC[C@H](NC(=O)CC[C@H](N)C(=O)O)C(=O)O [γ-L-glutamyl-(E)-S-1-propenyl-L-cysteine]
kokumi sensation (in words) (sensory panel [1]): good kokumi sensation | Sensory descriptors (sensory panel [2]; additive 10 mmol/L): onion aroma | Intensity (0-5) (sensory panel [2]; additive 10 mmol/L): 0.5 | Kokumi intensity (0-5) (sensory panel [3]; additive 10 mmol/L): 3.3

C/C=C/SC[C@H](NC(=O)CC[C@H](NC(=O)[C@H](CS/C=C/C)NC(=O)CC[C@H](N)C(=O)O)C(=O)O)C(=O)O [γ-L-glutamyl-(E)-S-1-propenyl-L-cysteinyl-γ-L-glutamyl-(E)-S-1-propenyl-L-cysteine]
kokumi sensation / flavour enhancing sensation (in words) (sensory panel [1]): strong flavour enhancing sensation | Sensory descriptors (sensory panel [2]; additive 10 mmol/L): flavourless | Intensity (0-5) (sensory panel [2]; additive 10 mmol/L): 0 | kokumi sensation (in words) (sensory panel [2]): no kokumi sensation | Kokumi intensity (0-5) (sensory panel [3]; additive 10 mmol/L): 3.3

From patent US8524302B2, “Natural flavour enhancers and methods for making same” (Pepsico, priority 2009, dated 2013)
